In patent publication US20100041642A1, “UREA INHIBITORS OF MAP KINASES” (LOCUS PHARMACEUTICALS, INC., priority 2008, published 2010):

Molecular target: p38 (Homo sapiens, UniProt Q16539)
Assay: Protein Kinase Assay (33P incorporation from γ-[33P]ATP into GST-ATF-2)
Format: biochemical
Settings: 2 nM p38, preincubated 20 min at 30° C.; 10 uM cold ATP, 2 uM GST-ATF2, 70 min; read-out: ACT. (Activity), IC50 category in Protein Kinase Assay
Description: Protein Kinase Assay. The protein kinase activity of p38 was determined by measuring the incorporation of ^33P from γ-[^33P]ATP into the GST-ATF-2 substrate, amino acids 19-96 (Upstate, N.Y. USA). The reactions were carried out in a final volume of 50 μL of 24 mM Tris-HCl buffer, pH 7.5, containing 13 mM MgCl2, 12% Glycerol, 2% DMSO, 2 mM DTT, […] of γ-[^33P]ATP (1000 Ci/mmol; 1 Ci=37 GBq) (GE Healthcare, Piscataway, N.J.), 10 uM cold ATP (GE Healthcare, Piscataway, N.J.), and 2 uM GST-ATF2. Compounds were preincubated with 2 nM p38 for 20 min at 30° C.; the reactions were initiated by the addition of GST-ATF2 and ATP and incubated for 70 min at 30° C. before being stopped by the addition of 10 μL of 600 mM phosphoric acid. The phosphorylated substrate was captured on phosphocellulose 96-well plate (Millipore MAPHNOB 10), washed with 100 mM phosphoric acid, and counted in a BeckmenCoulter LS6500 liquid scintillation counter. […] (Activity).

Sequence of p38 (Q16539 whole entry): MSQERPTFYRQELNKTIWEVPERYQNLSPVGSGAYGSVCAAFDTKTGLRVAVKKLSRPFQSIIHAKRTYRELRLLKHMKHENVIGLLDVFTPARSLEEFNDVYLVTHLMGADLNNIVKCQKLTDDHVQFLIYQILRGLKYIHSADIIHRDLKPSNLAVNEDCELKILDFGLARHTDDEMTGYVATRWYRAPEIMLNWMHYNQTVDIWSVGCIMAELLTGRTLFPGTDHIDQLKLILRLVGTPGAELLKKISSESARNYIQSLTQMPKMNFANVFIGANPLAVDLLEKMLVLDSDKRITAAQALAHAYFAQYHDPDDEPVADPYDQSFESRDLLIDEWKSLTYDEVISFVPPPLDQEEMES

Row | IC50 | Structure (SMILES)
1 | < 100 nM | Cc1ccc(NC(=O)Nc2sc(C(C)(C)C)cc2C(=O)N2CCNC(=O)C2(C)C)cc1-c1ccc(OCCCN2CCOCC2)nc1 [1-(5-tert-butyl-3-(2,2-dimethyl-3-oxopiperazine-1-carbonyl)thiophen-2-yl)-3-(4-methyl-3-(6-(3-morpholinopropoxy)pyridin-3-yl)phenyl)urea]
2 | < 100 nM | Cc1ccc(NC(=O)Nc2sc(C(C)(C)C)cc2C(=O)N2CCNC(=O)C2(C)C)cc1-c1ccc(N2CCOCC2)cn1 [1-(5-tert-butyl-3-(2,2-dimethyl-3-oxopiperazine-1-carbonyl)thiophen-2-yl)-3-(4-methyl-3-(5-morpholinopyridin-2-yl)phenyl)urea]
3 | < 100 nM | Cc1ccc(-c2ccc(N3CCOCC3)nc2)cc1NC(=O)Nc1sc(C(C)(C)C)cc1C(=O)N1CCNC(=O)C1(C)C [1-(5-tert-butyl-3-(2,2-dimethyl-3-oxopiperazine-1-carbonyl)thiophen-2-yl)-3-(2-methyl-5-(6-morpholinopyridin-3-yl)phenyl)urea]
4 | < 100 nM | COc1ccc(NC(=O)Nc2sc(C(C)(C)C)cc2C(=O)N2CCNC(=O)C2(C)C)cc1-c1ccncc1 [1-(5-tert-butyl-3-(2,2-dimethyl-3-oxopiperazine-1-carbonyl)thiophen-2-yl)-3-(4-methoxy-3-(pyridin-4-yl)phenyl)urea]
5 | < 100 nM | Cc1ccc(NC(=O)Nc2sc(C(C)(C)C)cc2C(=O)N2CCNC(=O)C2(C)C)cc1-c1ccc(N2CCC(N(C)C)C2)nc1 (stereo not shown) [1-(5-tert-butyl-3-(2,2-dimethyl-3-oxopiperazine-1-carbonyl)thiophen-2-yl)-3-(3-(6-(3-(dimethylamino)pyrrolidin-1-yl)pyridin-3-yl)-4-methylphenyl)urea]
6 | < 100 nM | CC(C)(C)c1cc(C(=O)N2CCNC(=O)C2(C)C)c(NC(=O)Nc2ccc(F)c(-c3ccc(OCCN4CCOCC4)nc3)c2)s1 [1-(5-tert-butyl-3-(2,2-dimethyl-3-oxopiperazine-1-carbonyl)thiophen-2-yl)-3-(4-fluoro-3-(6-(2-morpholinoethoxy)pyridin-3-yl)phenyl)urea]
7 | < 100 nM | Cc1ccc(NC(=O)Nc2sc(C(C)(C)C)cc2C(=O)N2CCNC(=O)CC2)cc1-c1cnc(N2CCOCC2)nc1 [1-(5-tert-butyl-3-(5-oxo-1,4-diazepane-1-carbonyl)thiophen-2-yl)-3-(4-methyl-3-(2-morpholinopyrimidin-5-yl)phenyl)urea]
8 | < 100 nM | Cc1ccc(NC(=O)Nc2sc(C(C)(C)C)cc2C(=O)N2CCN(C)C(=O)C2(C)C)cc1-c1ccc(C(N)=O)nc1 [5-(5-(3-(5-tert-butyl-3-(2,2,4-trimethyl-3-oxopiperazine-1-carbonyl)thiophen-2-yl)ureido)-2-methylphenyl)pyridine-2-carboxamide]
9 | < 100 nM | COc1ccc(-c2cc(NC(=O)Nc3sc(C(C)(C)C)cc3C(=O)N3CCC(=O)N(C)CC3)ccc2C)cn1 [1-(5-tert-butyl-3-(4-methyl-5-oxo-1,4-diazepane-1-carbonyl)thiophen-2-yl)-3-(3-(6-methoxypyridin-3-yl)-4-methylphenyl)urea]
10 | < 100 nM | Cc1ccc(NC(=O)Nc2oc(C(C)(C)C)cc2C(=O)N2CCNC(=O)C2(C)C)cc1-c1ccncc1 [1-(5-tert-butyl-3-(2,2-dimethyl-3-oxopiperazine-1-carbonyl)furan-2-yl)-3-(4-methyl-3-(pyridin-4-yl)phenyl)urea]
11 | < 100 nM | Cc1ccc(NC(=O)Nc2sc(C(C)(C)C)cc2C(=O)N2CCNC(=O)C2(C)C)cc1-c1cc[n+]([O-])cc1 [4-(5-(3-(5-tert-butyl-3-(2,2-dimethyl-3-oxopiperazine-1-carbonyl)thiophen-2-yl)ureido)-2-methylphenyl)pyridine 1-oxide]
12 | < 100 nM | Cc1ccc(NC(=O)Nc2sc(C(C)(C)C)cc2C(=O)N2CCNC(=O)C2(C)C)cc1-c1ccc(NCC(C)C)nc1 [1-(5-tert-butyl-3-(2,2-dimethyl-3-oxopiperazine-1-carbonyl)thiophen-2-yl)-3-(3-(6-(isobutylamino)pyridin-3-yl)-4-methylphenyl)urea]

Continued, molecule first:

Row | Structure (SMILES) | IC50
13 | CCc1ccc(-c2cc(NC(=O)Nc3cn(C4(C)CCCC4)nc3C(=O)N3CCNC(=O)C3(C)C)ccc2C)cn1 [1-(3-(2,2-dimethyl-3-oxopiperazine-1-carbonyl)-1-(1-methylcyclopentyl)-1H-pyrazol-4-yl)-3-(3-(6-ethylpyridin-3-yl)-4-methylphenyl)urea] | < 100 nM
14 | Cc1ccc(NC(=O)Nc2cc(C(C)(C)C)sc2C(=O)N2CCNC(=O)C2(C)C)cc1-c1ccc(N2CCOCC2)nc1 [1-(5-tert-butyl-2-(2,2-dimethyl-3-oxopiperazine-1-carbonyl)thiophen-3-yl)-3-(4-methyl-3-(6-morpholinopyridin-3-yl)phenyl)urea] | < 100 nM
15 | Cc1nnc(-c2ccc(-c3cc(NC(=O)Nc4sc(C(C)(C)C)nc4C(=O)N4CCN(C)C(=O)C4(C)C)ccc3C)cn2)o1 [1-(2-tert-butyl-4-(2,2,4-trimethyl-3-oxopiperazine-1-carbonyl)thiazol-5-yl)-3-(4-methyl-3-(6-(5-methyl-1,3,4-oxadiazol-2-yl)pyridin-3-yl)phenyl)urea] | < 100 nM
16 | Cc1ccc(NC(=O)Nc2sc(C(C)(C)C)cc2C(=O)N2CCNC(=O)C2(C)C)cc1-c1ccc(CN)nc1 [1-(3-(6-(aminomethyl)pyridin-3-yl)-4-methylphenyl)-3-(5-tert-butyl-3-(2,2-dimethyl-3-oxopiperazine-1-carbonyl)thiophen-2-yl)urea] | < 100 nM
17 | CCc1ccc(-c2cc(NC(=O)Nc3cc(C(C)(C)C)sc3C(=O)N3CCN(C)C(=O)C3(C)C)ccc2C)cn1 [1-(5-tert-butyl-2-(2,2,4-trimethyl-3-oxopiperazine-1-carbonyl)thiophen-3-yl)-3-(3-(6-ethylpyridin-3-yl)-4-methylphenyl)urea] | < 100 nM
18 | Cc1ccc(NC(=O)Nc2cn(C(C)(C)C)nc2C(=O)N2CCN(C3CCN(C)C3)C(=O)C2(C)C)cc1-c1cccnc1 (stereo not shown) [1-(1-tert-butyl-3-(2,2-dimethyl-4-(1-methylpyrrolidin-3-yl)-3-oxopiperazine-1-carbonyl)-1H-pyrazol-4-yl)-3-(4-methyl-3-(pyridin-3-yl)phenyl)urea] | < 1000 nM
19 | CCC(C)(C)c1cc(C(=O)N2CCN(C)C(=O)C2(C)C)c(NC(=O)Nc2ccc(C)c(-c3ccc(CN4CCOCC4)nc3)c2)s1 [1-(4-methyl-3-(6-(morpholinomethyl)pyridin-3-yl)phenyl)-3-(5-tert-pentyl-3-(2,2,4-trimethyl-3-oxopiperazine-1-carbonyl)thiophen-2-yl)urea] | < 100 nM
20 | Cc1ccc(NC(=O)Nc2cn(C(C)(C)C)nc2C(=O)N2CCN(C)C(=O)C2(C)C)cc1-c1ccc(CN2CCOCC2)cn1 [1-(1-tert-butyl-3-(2,2,4-trimethyl-3-oxopiperazine-1-carbonyl)-1H-pyrazol-4-yl)-3-(4-methyl-3-(5-(morpholinomethyl)pyridin-2-yl)phenyl)urea] | < 100 nM
21 | CCc1ccc(-c2cc(NC(=O)Nc3sc(C(C)(C)C)cc3C(=O)N3CCN(C)C(=O)C3(C)C)ccc2C)cn1 [1-(5-tert-butyl-3-(2,2,4-trimethyl-3-oxopiperazine-1-carbonyl)thiophen-2-yl)-3-(3-(6-ethylpyridin-3-yl)-4-methylphenyl)urea] | < 100 nM
22 | Cc1ccc(NC(=O)Nc2sc(C(C)(C)C)cc2C(=O)N2CCN(C)C(=O)C2(C)C)cc1-c1ccc(CN2CCOCC2)nc1 [1-(5-tert-butyl-3-(2,2,4-trimethyl-3-oxopiperazine-1-carbonyl)thiophen-2-yl)-3-(4-methyl-3-(6-(morpholinomethyl)pyridin-3-yl)phenyl)urea] | < 100 nM
